Here are results for four molecules from patent publication US20020032154A1, “Interferon-suppressing placental lactogen peptides” (priority 2000, published 2002).

One test relates to ICAM-1 antigen. The test is described as follows: Flow cytometry of ICAM-1 antigen in stably transfected HeLa cells. It counts as cell-based, human. The conditions noted are these: HeLa cells stably expressing the peptide. On the procedure:
(§1) For this reason the function of the cloned cDNA was tested directly using pools of stably transfected HeLa cells. Expression of three families of endogenous IFN-gamma-responsive genes in this reporter cell line was determined by flow cytometry using monoclonal antibodies that recognize MHC class II antigens (HLA-DR, DP, and DQ alpha chains), MHC class I heavy chains (HLA-A, B, and C ), and ICAM-1 antigen.
(§2) The hPL(1-28)-encoding cDNA was subcloned into the mammalian expression vector pSH4-hphm using standard methods. HeLa cells (100 mm dishes) were transfected with […] of HPL(1-28)-pSH4-hph^m DNA or empty vector (negative control) by calcium phosphate-mediated transfection. Stable transfectants were selected with hygromycin at […] for at least 16 days. Flow cytometric analysis was performed on stably transfected pools of cells that were treated in culture with IFN-gamma (0, 20, 66, 200, and 1000 U/ml) for 42 h and suspended for analysis by light trypsinization. Cells were stained at 4° C. with 10 µg/ml solutions of mAb CR 3/43 (Dako) specific for MHC class II antigens HLA-DP, HLA-DQ, and HLA-DR, mAb G46-2.6 (Pharmingen) specific for MHC class I antigens HLA-A, HLA-B, and HLA-C heavy chains, mAb HA58 (Pharmingen) specific for ICAM-1 antigen, and either non-immune mouse IgG1 or IgG2a as negative control. Antibody binding was detected with FITC-goat anti-mouse antibody (Biomeda), and 20,000 cells were analyzed with a FACScan (Becton-Dickinson).
A general note: A flow cytometer gives signals particle by particle.

Test [1] deals with MHC class I antigens (HLA-A, B, and C). The test is described as follows: Flow cytometry of constitutive and IFN-gamma-inducible MHC class I antigens in stably transfected HeLa cells. As to conditions: HeLa cells stably expressing the peptide. The format is cell-based, human. On the procedure:
as §1
as §2, with “Cells were stained at 4° C. with 10 µg/ml solutions of mAb CR 3/43 (Dako) specific for MHC class II antigens HLA-DP, HLA-DQ, and HLA-DR, mAb G46-2.6 (Pharmingen) specific for MHC class I antigens HLA-A, HLA-B, and HLA-C heavy chains, mAb HA58 (Pharmingen) specific for ICAM-1 antigen, and either non-immune mouse IgG1 or IgG2a as negative control.” left out

Test [2] relates to MHC class II antigens (HLA-DR, DP, and DQ). As to the kind of experiment: Flow cytometry of IFN-gamma-inducible MHC class II antigens in stably transfected HeLa cells. The format is cell-based, human. The conditions noted are these: HeLa cells stably expressing the peptide; any dose of IFN-gamma up to 1000 U/ml, 42 h; vs vector-transfected control cells. On the procedure: as §1
as §2, with “Cells were stained at 4° C. with 10 µg/ml solutions of mAb CR 3/43 (Dako) specific for MHC class II antigens HLA-DP, HLA-DQ, and HLA-DR, mAb G46-2.6 (Pharmingen) specific for MHC class I antigens HLA-A, HLA-B, and HLA-C heavy chains, mAb HA58 (Pharmingen) specific for ICAM-1 antigen, and either non-immune mouse IgG1 or IgG2a as negative control.” left out

The conditions of test [3]: glucose-dependent manner; cited from earlier work.
Another test addresses insulin receptor (Homo sapiens, UniProt P06213). As to conditions: isolated cells; cited from earlier work.
For test [4] the following is noted: intravenous insulin tolerance test; cited from earlier work.
The test system of test [5] is bovine brain capillary endothelial cell (BBCE). As to conditions: cited from earlier work.
In the next test the target is T1, hGH receptor (Homo sapiens, UniProt P10912).
T1 sequence (P10912 19-638): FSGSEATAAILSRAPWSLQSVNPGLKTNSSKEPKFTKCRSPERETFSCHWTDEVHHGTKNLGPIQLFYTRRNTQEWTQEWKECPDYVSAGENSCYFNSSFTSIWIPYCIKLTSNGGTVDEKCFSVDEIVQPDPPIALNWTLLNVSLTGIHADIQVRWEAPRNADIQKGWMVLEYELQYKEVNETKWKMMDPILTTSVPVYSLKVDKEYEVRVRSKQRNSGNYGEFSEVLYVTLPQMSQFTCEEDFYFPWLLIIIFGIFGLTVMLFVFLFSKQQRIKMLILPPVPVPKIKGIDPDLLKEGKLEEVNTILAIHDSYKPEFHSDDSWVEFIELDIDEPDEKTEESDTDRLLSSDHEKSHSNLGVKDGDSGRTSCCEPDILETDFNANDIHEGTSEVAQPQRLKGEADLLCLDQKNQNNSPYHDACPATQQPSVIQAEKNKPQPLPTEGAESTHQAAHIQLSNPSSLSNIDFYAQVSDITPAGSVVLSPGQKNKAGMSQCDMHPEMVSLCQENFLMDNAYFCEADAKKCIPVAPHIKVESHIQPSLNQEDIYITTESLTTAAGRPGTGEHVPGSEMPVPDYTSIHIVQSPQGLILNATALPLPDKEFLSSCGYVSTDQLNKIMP
The conditions noted are these: relative to hGH; cited from earlier work.

In test [6] the test system is peripheral blood T-lymphocyte. The conditions noted are these: in vitro; exogenous full-length hormone; cited from earlier work.
The subject of another test is tonsil B-lymphocyte. The conditions noted are these: in vitro; exogenous full-length hormone; cited from earlier work.

“VQTVPLSRLFDHAMLQAHRAHQLAIDTY (VQTVPLSRLFKEAMLQAHRAHQLAIDTY; HOMO SAPIENS; hPL(1-28) peptide) [isolated peptide, N-terminal 28 residues of secreted human placental lactogen; tested as product of transfected cDNA]”: the “fraction of ICAM-1 high-level positive cells” value in the test on ICAM-1 antigen (20 U/ml of IFN-gamma) is on record as “less”; with ICAM-1 antigen (higher doses of IFN-gamma (above 20 U/ml)), “still lower”. Moreover, in the test on ICAM-1 antigen (absence of IFN-gamma treatment), the “cells expressing ICAM-1 at high level” value is on record as “More than 50%”. In addition, the “IFN-gamma-induced high level expression of class I genes” value in test [1] (IFN-gamma treatment 42 h) is listed as “did not induce high level expression”. Besides, the “constitutive expression of MHC class I genes (HLA-A, B, and C antigens)” value in test [1] (absence of IFN-gamma) was “not reduced”. Moreover, the “levels of HLA-DR, DP, and DQ antigens after IFN-gamma treatment” value in test [2] is “not increased”.
With “hGH(6-13): octapeptide representing residues 6-13 of hGH (LSRLFDNA; UniProt P01241 32-39, looked up, fragment)”, the insulin secretion entry in [3] is given as “augmented”. In addition, the “binding of insulin to insulin receptor” value with insulin receptor was “increased”. Moreover, in test [4], the hypoglycemic activity result is reported as “hypoglycemic activity”.

B1: hPRL: Human prolactin (protein, UniProt P01236 29-227, looked up)
Prolactin: LPICPGGAARCQVTLRDLFDRAVVLSHYIHNLSSEMFSEFDKRYTHGRGFITKAINSCHTSSLATPEDKEQAQQMNQKDFLSLIVSILRSWNEPLYHLVTEVRGMQEAPEAILSKAVEIEEQTKRLLEGMELIVSQVHPETKENEIYPVWSGLPSLQMADEESRLSAYYNLLHCLRRDSHKIDNYLKLLKCRIIHNNNC
In the case of B1, the “effect on bFGF-induced BBCE cell proliferation” value in test [5] is “no significant additive somatotropic effect”.

B2: hPL: full-length human placental lactogen, mature polypeptide encoded by hPL-3 and hPL-4 genes (protein, UniProt P0DML2 27-217, looked up)
Chorionic somatomammotropin …: VQTVPLSRLFDHAMLQAHRAHQLAIDTYQEFEETYIPKDQKYSFLHDSQTSFCFSDSIPTPSNMEETQQKSNLELLRISLLLIESWLEPVRFLRSMFANNLVYDTSDSDDYHLLKDLEEGIQTLMGRLEDGSRRTGQILKQTYSKFDTNSHNHDALLKNYGLLYCFRKDMDKVETFLRMVQCRSVEGSCGF
Take B2: the “binding to the hGH receptor, weaker than hGH” value in the test with hGH receptor is listed as 2300 fold. Further, in [6], the “peripheral blood T-lymphocyte mitogenic response to phytohemagglutinin” value is “reduced”. In addition, the “tonsil B-lymphocyte mitogenic response to lipopolysaccharide” value with tonsil B-lymphocyte was “reduced”. Moreover, the “effect on bFGF-induced BBCE cell proliferation” value in test [5] was “no significant additive somatotropic effect”.
